According to US20200017496A1 (priority 2017, published 2020):

Key:
Assay type in all cases: cell-based
[1] = test system: Proteus mirabilis (PMI) isolates; assay: microbe, parasite or virus in culture; conditions: alone
Method in brief: (§1)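 Log-phase isolates at final 5·10^5 CFU/mL in cation-adjusted Mueller-Hinton broth, incubated 16-20 h at 35° C in ambient air. MIC read visually as lowest concentration preventing growth, for compound alone and for antibacterial at each compound concentration.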

[2] = test system: Enterobacter cloacae (ECL) isolates; assay: MIC of compounds alone and combined with antibacterials, broth microdilution (CLSI)
Method in brief: as §1

[3] = test system: Escherichia coli (ECO) isolates; assay: as above; conditions: alone
Method in brief: as §1

[4] = test system: Salmonella typhimurium (STY) isolates; assay: as above; conditions: STY S3371; alone
Method in brief: as §1

Molecule `NC(=O)[C@@H]1CC[C@@H]2CN1C(=O)N2OC(F)(F)C(=O)[O-].[Na+]` [EA1] has an MIC ([1]; PMI UFR82) greater than 32 µg/mL, an MIC ([1]; PMI UFR120) greater than 32 µg/mL and an MIC ([1]; PMI UFR121) greater than 32 µg/mL. For the same molecule, the MIC ([1]; PMI UFR122) was greater than 32 µg/mL, the MIC ([1]; PMI UFR123) was greater than 32 µg/mL and the MIC ([1]; PMI UFR124) was greater than 32 µg/mL. The MIC ([1]; PMI UFR125) was greater than 32 µg/mL, the MIC ([1]; PMI UFR126) was greater than 32 µg/mL and the MIC ([1]; PMI UFR127) was greater than 32 µg/mL. The MIC ([1]; PMI UFR129) was greater than 32 µg/mL, the MIC ([1]; PMI UFR130) was greater than 32 µg/mL and the MIC ([1]; PMI UFR237) was greater than 32 µg/mL. It also gave an MIC ([2]; ECL 2185D, alone) of 16 µg/mL, an MIC ([2]; ECL 190310, alone) of 32 µg/mL and an MIC ([2]; ECL 190408, alone) greater than 128 µg/mL. It also gave an MIC ([2]; ECL 200138, alone) greater than 32 µg/mL, an MIC ([2]; ECL 200322, alone) of 16 µg/mL and an MIC ([2]; ECL 260033, alone) of 16 µg/mL. The MIC ([2]; ECL 260253, alone) was greater than 32 µg/mL, the MIC ([2]; ECL 260323, alone) was greater than 32 µg/mL and the MIC ([2]; ECL 260508, alone) was greater than 32 µg/mL. For the same molecule, the MIC ([2]; ECL NEM146383, alone) was 32 µg/mL, the MIC ([2]; ECL P99, alone) was 16 µg/mL and the MIC ([2]; ECL UFR12, alone) was 32 µg/mL. For the same molecule, the MIC ([2]; ECL UFR13, alone) was 32 µg/mL, the MIC ([2]; ECL UFR14, alone) was greater than 32 µg/mL and the MIC ([2]; ECL UFR60, alone) was 32 µg/mL. For the same molecule, the MIC ([2]; ECL UFR70, alone) was 32 µg/mL, the MIC ([2]; ECL UFR84, alone) was greater than 32 µg/mL and the MIC ([2]; ECL UFR85, alone) was greater than 32 µg/mL. It also gave an MIC ([2]; ECL UFR194, alone) greater than 32 µg/mL, an MIC ([2]; ECL UFR200, alone) greater than 32 µg/mL and an MIC ([2]; strain ECL UFR195, compound alone) greater than 32 µg/mL. For the same molecule, the MIC ([2]; strain ECL UFR196, compound alone) was greater than 32 µg/mL, the MIC ([2]; strain ECL UFR197, compound alone) was 16 µg/mL and the MIC ([2]; strain ECL UFR198, compound alone) was greater than 32 µg/mL. For the same molecule, the MIC ([3]; ECO 4133) was 16 µg/mL, the MIC ([3]; ECO 5302) was 16 µg/mL and the MIC ([3]; ECO 131119) was 32 µg/mL. It also gave an MIC ([3]; ECO 180070) greater than 32 µg/mL, an MIC ([3]; ECO 190314) greater than 32 µg/mL and an MIC ([3]; ECO 190317) of 16 µg/mL. For the same molecule, the MIC ([3]; ECO 190457) was 16 µg/mL, the MIC ([3]; ECO 190549) was 16 µg/mL and the MIC ([3]; ECO 200159) was 32 µg/mL. It also gave an MIC ([3]; ECO 200259) of 16 µg/mL, an MIC ([3]; ECO 200344) greater than 32 µg/mL and an MIC ([3]; ECO 260096) of 16 µg/mL. It also gave an MIC ([3]; ECO 260304) of 32 µg/mL, an MIC ([3]; ECO 260508) of 16 µg/mL and an MIC ([3]; ECO RGN238) greater than 32 µg/mL. For the same molecule, the MIC ([3]; ECO UFR15) was 32 µg/mL, the MIC ([3]; ECO UFR16) was 16 µg/mL and the MIC ([3]; ECO UFR17) was 16 µg/mL. The MIC ([3]; ECO UFR18) was 16 µg/mL, the MIC ([3]; ECO UFR19) was 16 µg/mL and the MIC ([3]; ECO UFR20) was 64 µg/mL. For the same molecule, the MIC ([3]; ECO UFR61O) was 32 µg/mL, the MIC ([3]; ECO UFR62) was 16 µg/mL and the MIC ([3]; ECO UFR74) was greater than 32 µg/mL. For the same molecule, the MIC ([3]; ECO UFR86) was 16 µg/mL, the MIC ([3]; ECO UFR174) was 8 µg/mL and the MIC ([3]; ECO UFR175) was 32 µg/mL. It also gave an MIC ([3]; ECO UFR176) of 32 µg/mL, an MIC ([3]; ECO UFR184) of 8 µg/mL and an MIC ([3]; ECO UFR185) of 16 µg/mL. It also gave an MIC ([3]; ECO UFR186) greater than 32 µg/mL, an MIC ([3]; ECO UFR187) greater than 32 µg/mL and an MIC ([3]; ECO UFR189) of 16 µg/mL. It also gave an MIC ([3]; ECO UFR190) of 16 µg/mL, an MIC ([3]; ECO UFR191) of 32 µg/mL and an MIC ([3]; ECO UFR207) of 32 µg/mL. For the same molecule, the MIC ([3]; ECO UFR208) was greater than 32 µg/mL, the MIC ([3]; ECO UFR209) was 16 µg/mL and the MIC ([3]; ECO UFR210) was 16 µg/mL. The MIC ([3]; ECO UFR211) was greater than 32 µg/mL, the MIC ([3]; ECO UFR212) was 16 µg/mL and the MIC ([3]; ECO UFR218) was 16 µg/mL. The MIC [4] was greater than 32 µg/mL.
